One assay has as its system α-amylase. The experiment in a line: In vitro α-amylase inhibition activity (starch-iodine, 580 nm). In kind it is biochemical.
The subject of another assay is α-glucosidase. The assay can be described thus: In vitro α-glucosidase inhibitory activity (pNPG substrate, absorbance at 405 nm). In kind it is biochemical. The protocol: After the pre-incubation, pNPG (substrate, 30 μL, 5 mM) prepared in 0.1 M phosphate buffer (pH 6.8) was poured into the wells of the microplate, which were then incubated at 37 °C for 20 minutes. […] For inhibition studies, various concentrations of test samples were utilized. […] All data were presented as means ± SD values, obtained from a microplate reader for all experiments.

Method for α-amylase: In vitro α-amylase inhibition studies were performed following a reported methodology with slight modification.[20] First, to prepare our reaction mixture, 10 μL of enzyme solution (0.1 mg mL^−1) was combined with a 10 mM phosphate buffer at pH 6.9 (6 mM NaCl), and then mixed with the various concentrations of the tested sample. The resultant reaction mixtures placed in a microplate were incubated for 30 minutes at 37 °C. After the incubation period, 40 μL of starch solution (1%) was added; subsequently, this assay plate was incubated at 37 °C for 10 minutes. Finally, the reaction was terminated by adding 20 μL of 1.0 M HCl to the prepared solution, followed by the addition of 75 μL of iodine solution. Quantification was performed spectrophotometrically at 580 nm. […] Inhibition activity (%) was measured using eqn (1).1 [drawing 1] Here, the control sample excluded the α-amylase and the tested sample. The inhibitor concentration used to inhibit α-amylase activity (50%) under assay was determined as IC50 values. The findings were depicted as means ± SD values, obtained from microplate readers.

Turning to “(E)-2-((adamantan-2-ylimino)methyl)-6-bromo-4-chlorophenol [AHB]”, the “α-amylase inhibition, result in words” value in the assay on α-amylase is “relatively inactive”. For the same substance, the “α-glucosidase inhibition, result in words” value in the assay with α-glucosidase is “relatively inactive”.
